The data set concerns rodent lifetime carcinogenesis bioassay, tumor incidence TD50. The data set can be described thus: chronic cancer bioassays in animals – CPDB, compiled studies (AID 1745844).

Ten molecules from PubChem BioAssay AID1745844 (Carcinogenic Potency Database (CPDB), 2022) can be followed below.

Several values for one entry are separate records, joined by “and”; a condition that tells them apart may be missing. Equal entries are not always repeated. Activity calls are given as the source filed them. The rule behind the calls is not given here.

In general, TD50 refers to the dose at which the toxic effect under study appears in half of the subjects.

For `OCCOCCO`, the carcinogen call reads like this: (rat, strain F344/DuCrj, females, in drinking water, site: any site (literature study), lesion: several types, types named in the paper, dosed 108 weeks, study length 108 weeks) “negative (inactive)”; (rat, strain F344/DuCrj, females, in drinking water, site: liver, lesion: neoplastic nodule, dosed 108 weeks, study length 108 weeks) “negative (inactive)”; (rat, strain F344/DuCrj, males, in drinking water, site: any site (literature study), lesion: several types, types named in the paper, dosed 108 weeks, study length 108 weeks) “negative (inactive)”. In addition, the TD50 was 34200 mg/kg/day (inactive) (rat, strain F344/DuCrj, males, in drinking water, site: liver, lesion: neoplastic nodule, dosed 108 weeks, study length 108 weeks) and 1660 mg/kg/day (rat, strain Osborne-Mendel, males, in feed, site: urinary bladder, lesion: several types, types named in the paper, dosed 104 weeks, study length 104 weeks).

Consider `CC(CN1c2ccccc2Sc2ccccc21)N(C)C` (centres undefined), for which the carcinogen call was “negative (inactive)” (mouse, strain B6C3F1, females, by gavage, site: any site (literature study), lesion: several types, types named in the paper, dosed 104 weeks, study length 105 weeks) and “negative (inactive)” (rat, strain Fischer 344, females, by gavage, site: any site (literature study), lesion: several types, types named in the paper, dosed 103 weeks, study length 104 weeks). In addition, the TD50 runs as follows: (mouse, strain B6C3F1, females, by gavage, site: liver, lesion: hepatocellular adenoma + hepatoblastoma + hepatocellular carcinoma, dosed 104 weeks, study length 105 weeks) 47.8 mg/kg/day; (mouse, strain B6C3F1, males, by gavage, site: any site (literature study), lesion: several types, types named in the paper, dosed 103 weeks, study length 104 weeks) 393 mg/kg/day (inactive); (mouse, strain B6C3F1, males, by gavage, site: liver, lesion: hepatocellular adenoma + hepatoblastoma + hepatocellular carcinoma, dosed 103 weeks, study length 104 weeks) 157 mg/kg/day; (rat, strain Fischer 344, females, by gavage, site: liver, lesion: hepatocellular adenoma + hepatoblastoma + hepatocellular carcinoma, dosed 103 weeks, study length 104 weeks) 418 mg/kg/day; (rat, strain Fischer 344, males, by gavage, site: any site (literature study), lesion: several types, types named in the paper, dosed 102 weeks, study length 102 weeks) 24.6 mg/kg/day; (rat, strain Fischer 344, males, by gavage, site: testis, lesion: interstitial-cell adenoma, bilateral + interstitial-cell adenoma, dosed 102 weeks, study length 102 weeks) 10.3 mg/kg/day (inactive).

On to `COC(=O)NN`, for which the carcinogen call is, setting by setting: (rat, strain Wistar, females, in feed, site: any site (literature study), lesion: one or several types, types not named, dosed 104 weeks, study length 104 weeks) “negative (inactive)”; (rat, strain Wistar, males, in feed, site: any site (literature study), lesion: one or several types, types not named, dosed 104 weeks, study length 104 weeks) “negative (inactive)”.

In the case of `Nc1cc(Cl)c(N)c(Cl)c1`, the TD50 was 801 mg/kg/day (mouse, strain B6C3F1, females, in feed, site: any site (literature study), lesion: several types, types named in the paper, dosed 103 weeks, study length 111 weeks); 883 mg/kg/day (mouse, strain B6C3F1, females, in feed, site: liver, lesion: hepatocellular adenoma + hepatocellular carcinoma + neoplastic nodule, dosed 103 weeks, study length 111 weeks); 883 mg/kg/day (mouse, strain B6C3F1, females, in feed, site: liver, lesion: hepatocellular adenoma + hepatocellular carcinoma, dosed 103 weeks, study length 111 weeks); 2030 mg/kg/day (mouse, strain B6C3F1, females, in feed, site: liver, lesion: hepatocellular carcinoma, dosed 103 weeks, study length 111 weeks); 42100 mg/kg/day (mouse, strain B6C3F1, females, in feed, site: lung, lesion: alveolar/bronchiolar adenoma + alveolar/bronchiolar carcinoma, dosed 103 weeks, study length 111 weeks); 1730 mg/kg/day (mouse, strain B6C3F1, males, in feed, site: any site (literature study), lesion: several types, types named in the paper, dosed 103 weeks, study length 111 weeks). In addition, the TD50 runs as follows: (mouse, strain B6C3F1, males, in feed, site: liver, lesion: hepatocellular adenoma + hepatocellular carcinoma + neoplastic nodule, dosed 103 weeks, study length 111 weeks) 737 mg/kg/day; (mouse, strain B6C3F1, males, in feed, site: liver, lesion: hepatocellular adenoma + hepatocellular carcinoma, dosed 103 weeks, study length 111 weeks) 737 mg/kg/day; (mouse, strain B6C3F1, males, in feed, site: liver, lesion: hepatocellular adenoma, dosed 103 weeks, study length 111 weeks) 933 mg/kg/day; (rat, strain Fischer 344, females, in feed, site: liver, lesion: hepatocellular adenoma + hepatocellular carcinoma + neoplastic nodule, dosed 103 weeks, study length 111 weeks) 2960 mg/kg/day; (rat, strain Fischer 344, males, in feed, site: any site (literature study), lesion: several types, types named in the paper, dosed 103 weeks, study length 111 weeks) 914 mg/kg/day (inactive); (rat, strain Fischer 344, males, in feed, site: liver, lesion: hepatocellular adenoma + hepatocellular carcinoma + neoplastic nodule, dosed 103 weeks, study length 111 weeks) 340 mg/kg/day. For the setting “rat, strain Fischer 344, females, in feed, site: any site (literature study), lesion: several types, types named in the paper, dosed 103 weeks, study length 111 weeks”, the carcinogen call was “negative (inactive)”.

As to `Cc1cc2c(nc1N)[nH]c1ccccc12`, the TD50 runs as follows: (mouse, strain CDF1, females, in feed, site: blood vessels, lesion: hemangioendothelial sarcoma, dosed 84 weeks, study length 84 weeks) 38.6 mg/kg/day; (mouse, strain CDF1, females, in feed, site: liver, lesion: hepatocellular adenoma, dosed 84 weeks, study length 84 weeks) 118 mg/kg/day; (mouse, strain CDF1, females, in feed, site: liver, lesion: hepatocellular carcinoma, dosed 84 weeks, study length 84 weeks) 98.9 mg/kg/day; (mouse, strain CDF1, females, in feed, site: liver, lesion: several types, types named in the paper, dosed 84 weeks, study length 84 weeks) 38.6 mg/kg/day; (mouse, strain CDF1, females, in feed, site: lung, lesion: adenoma, dosed 84 weeks, study length 84 weeks) 1840 mg/kg/day; (mouse, strain CDF1, males, in feed, site: blood vessels, lesion: hemangioendothelial sarcoma, dosed 73 weeks, study length 73 weeks) 15.6 mg/kg/day. Moreover, the TD50 reads like this: (mouse, strain CDF1, males, in feed, site: liver, lesion: hepatocellular adenoma, dosed 73 weeks, study length 73 weeks) 90.9 mg/kg/day; (mouse, strain CDF1, males, in feed, site: liver, lesion: hepatocellular carcinoma, dosed 73 weeks, study length 73 weeks) 127 mg/kg/day; (mouse, strain CDF1, males, in feed, site: liver, lesion: several types, types named in the paper, dosed 73 weeks, study length 73 weeks) 43.5 mg/kg/day; (mouse, strain CDF1, males, in feed, site: lung, lesion: adenoma, dosed 73 weeks, study length 73 weeks) 1180 mg/kg/day; (rat, strain F344/DuCrj, males, in feed, site: liver, lesion: hepatocellular carcinoma, dosed 100 weeks, study length 100 weeks) 11.7 mg/kg/day; (rat, strain F344/DuCrj, males, in feed, site: pancreas, lesion: acinar-cell adenoma, dosed 100 weeks, study length 100 weeks) 8.7 mg/kg/day. Besides, the TD50 by setting is: (rat, strain F344/DuCrj, males, in feed, site: pancreatic islets, lesion: islet-cell adenoma, dosed 100 weeks, study length 100 weeks) 48.1 mg/kg/day; (rat, strain F344/DuCrj, males, in feed, site: salivary gland, lesion: fibrosarcoma, dosed 100 weeks, study length 100 weeks) 73.5 mg/kg/day; (rat, strain F344/DuCrj, males, in feed, site: subcutaneous tissue, lesion: fibroma, dosed 100 weeks, study length 100 weeks) 6.7 mg/kg/day; (rat, strain F344/DuCrj, males, in feed, site: urinary bladder, lesion: transitional-cell carcinoma, dosed 100 weeks, study length 100 weeks) 28.6 mg/kg/day.

As to `[O]=[Bi]`, the carcinogen call by setting is: (rat, strain BD, both sexes, in feed, site: hypophysis, lesion: adenoma, dosed 104 weeks, study length 120 weeks) “negative (inactive)”; (rat, strain BD, both sexes, in feed, site: mammary gland, lesion: carcinoma, dosed 104 weeks, study length 120 weeks) “negative (inactive)”. Also, under “rat, strain BD, both sexes, in feed, site: mammary gland, lesion: fibroadenoma, dosed 104 weeks, study length 120 weeks”, the TD50 was 150000 mg/kg/day (inactive).

`Nc1ccc(Oc2ccc(Cl)cc2)cc1`: the TD50 (mouse, strain CD-1 HaM/ICR, females, in feed, site: all sites, lesion: all vascular tumors, dosed 68 weeks, study length 86 weeks) was 346 mg/kg/day; the TD50 (mouse, strain CD-1 HaM/ICR, females, in feed, site: any site (literature study), lesion: several types, types named in the paper, dosed 68 weeks, study length 86 weeks) came to 598 mg/kg/day; the TD50 (mouse, strain CD-1 HaM/ICR, females, in feed, site: liver, lesion: several types, types named in the paper, dosed 68 weeks, study length 86 weeks) was found to be 905 mg/kg/day; the TD50 (mouse, strain CD-1 HaM/ICR, females, in feed, site: urinary bladder, lesion: several types, types named in the paper, dosed 68 weeks, study length 86 weeks) is 1130 mg/kg/day; the TD50 (rat, strain Charles River CD (Sprague-Dawley), males, in feed, site: any site (literature study), lesion: several types, types named in the paper, dosed 77 weeks, study length 98 weeks) came out at 25.1 mg/kg/day; the TD50 (rat, strain Charles River CD (Sprague-Dawley), males, in feed, site: liver, lesion: hepatoma, dosed 77 weeks, study length 98 weeks) is 37.9 mg/kg/day and 37.6 mg/kg/day. The TD50 (rat, strain Charles River CD (Sprague-Dawley), males, in feed, site: liver, lesion: several types, types named in the paper, dosed 77 weeks, study length 98 weeks) was 37.9 mg/kg/day. Also, the carcinogen call runs as follows: (mouse, strain CD-1 HaM/ICR, males, in feed, site: any site (literature study), lesion: several types, types named in the paper, dosed 51 weeks, study length 55 weeks) “negative (inactive)”; (mouse, strain CD-1 HaM/ICR, males, in feed, site: liver, lesion: several types, types named in the paper, dosed 51 weeks, study length 55 weeks) “negative (inactive)”; (mouse, strain CD-1 HaM/ICR, males, in feed, site: lung, lesion: several types, types named in the paper, dosed 51 weeks, study length 55 weeks) “negative (inactive)”.

The molecule `COC(=O)C1=CCCN(N=O)C1` showed a TD50 (rat, strain Fischer 344, males, in drinking water, site: pancreas, exocrine, lesion: acinar-cell adenoma, dosed 128 weeks, study length 128 weeks) of 7.95 mg/kg/day.

Regarding `Cc1cccc2cccnc12`, the carcinogen call is “negative (inactive)” (rat, strain Fischer 344, females, in feed, site: liver, lesion: hyperplastic nodule, dosed 104 weeks, study length 104 weeks) and “negative (inactive)” (rat, strain Fischer 344, males, in feed, site: liver, lesion: hyperplastic nodule, dosed 104 weeks, study length 104 weeks).

For `CCOC(=O)C(C)(C)Oc1ccc(Cl)cc1`, the TD50 runs as follows: (mouse, strain AP Alderly Park, females, in feed, site: liver, lesion: hepatocellular adenoma, dosed 78 weeks, study length 78 weeks) 1480 mg/kg/day (inactive); (mouse, strain AP Alderly Park, males, in feed, site: liver, lesion: hepatocellular adenoma, dosed 78 weeks, study length 78 weeks) 313 mg/kg/day (inactive); (mouse, strain AP Alderly Park, males, in feed, site: liver, lesion: hepatocellular carcinoma, dosed 78 weeks, study length 78 weeks) 9710 mg/kg/day (inactive); (mouse, strain C57BL/10J, females, in feed, site: liver, lesion: hepatocellular adenoma, dosed 78 weeks, study length 78 weeks) 14700 mg/kg/day (inactive); (mouse, strain C57BL/10J, males, in feed, site: liver, lesion: hepatocellular adenoma, dosed 78 weeks, study length 78 weeks) 3640 mg/kg/day (inactive); (rat, strain Fischer 344, males, in feed, site: liver, lesion: hepatocellular carcinoma, dosed 121 weeks, study length 121 weeks) 169 mg/kg/day. For the same molecule, where the note is “rat, strain Fischer 344, males, in feed, site: pancreas, lesion: acinar-cell carcinoma, dosed 121 weeks, study length 121 weeks”, the TD50 was 1300 mg/kg/day. The carcinogen call runs as follows: (mouse, strain C57BL/10J, females, in feed, site: lung, lesion: one or several types, types not named, dosed 78 weeks, study length 78 weeks) “negative (inactive)”; (mouse, strain C57BL/10J, males, in feed, site: lung, lesion: one or several types, types not named, dosed 78 weeks, study length 78 weeks) “negative (inactive)”.
